Results from ChEMBL document CHEMBL1201862, “PubChem BioAssay data set” (2004).
Activity calls are given as the source filed them.

Legend:
[1] = target: 1-phosphatidylinositol 4,5-bisphosphate phosphodiesterase gamma-1 (Homo sapiens, UniProt P19174); experiment: Counterscreen for inhibitors of phospholipase C isozymes (PLC-B3): Fluorescence-based biochemical high throughput dose response assay to identify inhibitors of phospholipase C isozymes (PLC-gamma1).
[2] = target: 1-phosphatidylinositol 4,5-bisphosphate phosphodiesterase beta-3 (Homo sapiens, UniProt Q01970); experiment: Fluorescence-based biochemical high throughput dose response assay to identify inhibitors of phospholipase C isozymes (PLC-B3).
Nonstructural protein 1 = Nonstructural protein 1 (Influenza A virus, UniProt Q194T2); type: functional, Influenza A virus (A/California/07/2009(H1N1))
[3] = HeLa cell cytotoxicity, dose response, cytotoxicity control for MgcRacGAP inhibitor project (AID 624300); type: functional
[4] = target: T1, Rac GTPase-activating protein 1 (Homo sapiens, UniProt Q9H0H5); experiment: MgcRacGAP GTPase-activating activity inhibitors, confirmation, biochemical, ADP Hunter fluorescence, primary and confirmatory (AID 624330); type: functional
T1 sequence (Q9H0H5 whole entry): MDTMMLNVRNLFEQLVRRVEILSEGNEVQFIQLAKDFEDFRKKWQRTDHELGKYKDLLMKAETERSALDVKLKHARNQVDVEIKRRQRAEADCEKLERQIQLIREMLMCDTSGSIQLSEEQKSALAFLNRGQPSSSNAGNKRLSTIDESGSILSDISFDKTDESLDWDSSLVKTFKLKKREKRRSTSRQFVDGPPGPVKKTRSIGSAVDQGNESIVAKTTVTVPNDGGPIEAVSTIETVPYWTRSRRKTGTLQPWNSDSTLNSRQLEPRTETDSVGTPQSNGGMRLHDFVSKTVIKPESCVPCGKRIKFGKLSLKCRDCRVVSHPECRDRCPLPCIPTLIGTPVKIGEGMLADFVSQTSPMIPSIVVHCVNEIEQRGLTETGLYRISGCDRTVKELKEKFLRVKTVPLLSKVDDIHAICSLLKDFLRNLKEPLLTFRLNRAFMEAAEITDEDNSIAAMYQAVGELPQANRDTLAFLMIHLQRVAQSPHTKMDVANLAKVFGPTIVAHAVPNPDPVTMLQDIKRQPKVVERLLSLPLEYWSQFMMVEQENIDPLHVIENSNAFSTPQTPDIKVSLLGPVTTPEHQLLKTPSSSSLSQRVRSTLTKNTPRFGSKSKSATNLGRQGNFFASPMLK

Galanin receptor type 3 = target: T2, Galanin receptor type 3 (Homo sapiens, UniProt O60755); experiment: Fluorescence-based cell-based primary high throughput dose response assay to identify antagonists of the Galanin Receptor 3 (GalR3).; type: functional
T2 sequence (O60755 whole entry): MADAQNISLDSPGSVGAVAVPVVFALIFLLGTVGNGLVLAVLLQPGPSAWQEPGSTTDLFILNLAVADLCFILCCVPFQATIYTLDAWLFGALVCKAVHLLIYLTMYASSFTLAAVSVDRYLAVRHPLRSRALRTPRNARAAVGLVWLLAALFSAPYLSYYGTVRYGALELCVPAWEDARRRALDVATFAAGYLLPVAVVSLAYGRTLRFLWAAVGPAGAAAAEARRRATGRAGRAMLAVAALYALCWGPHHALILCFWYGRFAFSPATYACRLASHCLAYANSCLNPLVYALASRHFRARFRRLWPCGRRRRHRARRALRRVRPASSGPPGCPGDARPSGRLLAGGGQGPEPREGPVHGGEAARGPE

cells = type: functional, cell-based; conditions: HEK-CNG
[5] = target: T3, DNA repair protein RAD52 homolog (Homo sapiens, UniProt P43351); type: functional, biochemical
T3 sequence (P43351 whole entry): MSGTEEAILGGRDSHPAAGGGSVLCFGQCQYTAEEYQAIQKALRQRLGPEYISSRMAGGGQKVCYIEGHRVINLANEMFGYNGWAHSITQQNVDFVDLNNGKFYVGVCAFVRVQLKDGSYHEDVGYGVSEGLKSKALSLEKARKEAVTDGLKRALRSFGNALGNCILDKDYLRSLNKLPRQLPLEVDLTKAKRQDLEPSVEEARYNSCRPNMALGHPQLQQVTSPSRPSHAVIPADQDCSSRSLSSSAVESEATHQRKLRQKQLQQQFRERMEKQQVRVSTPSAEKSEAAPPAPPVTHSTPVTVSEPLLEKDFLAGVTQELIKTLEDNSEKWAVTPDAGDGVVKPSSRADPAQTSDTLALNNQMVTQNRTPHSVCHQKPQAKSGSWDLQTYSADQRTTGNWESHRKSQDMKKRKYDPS

[6] = target: Matrix metalloproteinase-14 (Homo sapiens, UniProt P50281); experiment: Dose Response confirmation of uHTS hits for a small molecule inhibitors of MT1-MMP activation in a fluorescence assay set 1.; type: functional
[7] = target: T4, Histone-lysine N-methyltransferase NSD2 (Homo sapiens, UniProt O96028); type: biochemical
T4 sequence (O96028 whole entry): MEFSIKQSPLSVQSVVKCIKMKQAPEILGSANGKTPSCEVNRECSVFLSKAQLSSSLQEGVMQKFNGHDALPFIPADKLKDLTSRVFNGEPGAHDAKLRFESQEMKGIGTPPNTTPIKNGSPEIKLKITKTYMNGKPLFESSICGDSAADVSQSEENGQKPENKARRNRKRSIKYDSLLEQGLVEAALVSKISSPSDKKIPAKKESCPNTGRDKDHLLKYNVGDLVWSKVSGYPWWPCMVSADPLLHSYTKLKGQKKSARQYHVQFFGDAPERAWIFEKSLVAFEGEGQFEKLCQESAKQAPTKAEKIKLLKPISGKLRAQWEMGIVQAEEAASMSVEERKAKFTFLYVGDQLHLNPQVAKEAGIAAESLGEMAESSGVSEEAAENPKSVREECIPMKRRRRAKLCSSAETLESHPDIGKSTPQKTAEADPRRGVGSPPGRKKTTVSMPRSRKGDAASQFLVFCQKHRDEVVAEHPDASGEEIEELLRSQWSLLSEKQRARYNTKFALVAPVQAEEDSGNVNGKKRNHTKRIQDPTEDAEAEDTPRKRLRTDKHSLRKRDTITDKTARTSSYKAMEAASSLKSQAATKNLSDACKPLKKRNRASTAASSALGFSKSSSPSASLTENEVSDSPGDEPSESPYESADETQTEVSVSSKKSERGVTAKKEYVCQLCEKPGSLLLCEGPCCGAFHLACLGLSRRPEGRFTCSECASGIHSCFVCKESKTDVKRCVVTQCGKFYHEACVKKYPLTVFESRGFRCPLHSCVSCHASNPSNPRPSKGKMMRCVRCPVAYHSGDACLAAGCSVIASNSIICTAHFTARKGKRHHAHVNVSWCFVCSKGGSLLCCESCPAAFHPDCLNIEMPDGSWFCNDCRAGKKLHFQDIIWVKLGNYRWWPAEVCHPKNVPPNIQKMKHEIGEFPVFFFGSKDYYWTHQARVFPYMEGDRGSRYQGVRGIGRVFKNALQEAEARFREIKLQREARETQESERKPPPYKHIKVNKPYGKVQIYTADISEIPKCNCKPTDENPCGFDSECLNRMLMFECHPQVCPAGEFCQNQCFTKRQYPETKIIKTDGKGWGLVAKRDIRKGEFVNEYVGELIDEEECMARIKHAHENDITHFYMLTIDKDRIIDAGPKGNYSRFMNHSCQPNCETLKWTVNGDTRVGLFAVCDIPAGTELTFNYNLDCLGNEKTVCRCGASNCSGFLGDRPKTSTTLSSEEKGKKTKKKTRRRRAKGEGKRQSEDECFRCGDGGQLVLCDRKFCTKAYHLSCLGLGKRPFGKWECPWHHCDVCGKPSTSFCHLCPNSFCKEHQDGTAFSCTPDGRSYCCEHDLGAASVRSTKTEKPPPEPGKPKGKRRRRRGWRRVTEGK

[8] = human group III sPLA2 inhibitors, dose response, biochemical, QFRET, IC50 (AID 743457);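 also: green fluorescence rise as the enzyme cleaves BODIPY PC-A2 in liposomes; potency for inhibition of the enzyme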
[9] = Shn3 3'UTR reporter inhibitors, dose response, cell-based, Clone20 osteoblasts, firefly luciferase, cherry-picked (AID 624132); type: functional;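 also: firefly luciferase luminescence from reporter carrying the Shn3 3'UTR in osteoblasts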
[10] = HepG2 cell cytotoxicity, dose response, cytotoxicity control for Shn3 inhibitor project, CellTiter-Glo, cherry-picked (AID 624134); type: functional, cell-based
[11] = control 3'UTR Renilla luciferase suppression, dose response, counter-screen for Shn3 inhibitor project, cell-based, Clone20-Shn3RL, cherry-picked (AID 624133); type: functional
[12] = target: COUP transcription factor 2 (Homo sapiens, UniProt P24468); experiment: Luminescence-based cell-based high throughput dose response assay to identify inhibitors of COUP-TFII (NR2F2).; type: functional;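 also: HEK293 cells transiently cotransfected with COUP-TFII expression vector and reporter; luciferase reporter luminescence driven by COUP-TFII from the pX2-168 reporter plasmid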
Paired box protein Pax-8 = Paired box protein Pax-8 (Homo sapiens, UniProt Q06710); experiment: inhibitors of PAX8-driven TPO luciferase reporter, dose response, RMG-I cells, cherry-pick (AID 687027); type: functional, cell-based;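 also: luciferase reporter driven by Pax8 target thyroperoxidase promoter measured by SteadyGlo luminescence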
[13] = IOSE-T80 ovarian epithelial cell cytotoxicity, dose response, cytotoxicity control for PAX8 inhibitor project, plate reader, dry powder samples (AID 743045); type: functional, cell-based
[14] = NIH:OVCAR-3 ovarian cancer cell cytotoxicity, dose response, PAX8 inhibitor project, plate reader, dry powder samples (AID 743044); type: functional, cell-based
[15] = cytotoxicity in OVCAR8 ovarian cancer cells, dose response, PAX8 project, cell-based, plate reader, dry powder samples (AID 743197); type: functional; conditions: OVCAR-8
[16] = P. falciparum Dd2 growth inhibitors, dose response, SYBR Green, dry powder samples, set 9 (AID 1159568); type: functional, cell-based
[17] = P. falciparum 3D7-ScDHODH growth inhibitors, dose response, SYBR Green, dry powder samples (AID 1159570); type: functional, cell-based;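 also: parasite growth measured after 72 hours of compound exposure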
[18] = P. falciparum Dd2 growth inhibitors, dose response, SYBR Green, cherry-picked samples (AID 1159567); type: functional, cell-based
[19] = P. falciparum Dd2 growth inhibitors, dose response, SYBR Green, dry powder samples (AID 1159566); type: functional, cell-based;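 also: potency for growth inhibition with lower SYBR green DNA signal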
[20] = Plasmodium falciparum Dd2 Sybr green parasite growth Measured in Cell-Based and Microorganism Combination System Using Plate Reader - 2153-01_Inhibitor_Dose_DryPowder_Activity_Set3.; type: functional
[21] = P. falciparum ATP4 D1247Y mutant growth inhibitors, dose response, NITD609-resistant line, SYBR Green, dry powder (AID 1159571); type: functional, cell-based;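 also: parasites synchronized at ring stage by sorbitol before testing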
[22] = Concentration-dependent survival of SW480 colon cancer line, luminescence detection with CellTiter-Glo, half-maximal inhibitory concentration (AID 1117338); type: functional
[23] = RKO cell viability reduction, dose response, CellTiter-Glo luminescence (AID 1117322); type: functional
[24] = cytotoxicity toward HCT116 cells – cell-based, CellTiter-Glo luminescence, IC50, dose response (AID 1117332); type: functional; conditions: HCT-116
[25] = SNU-C1 cell viability reduction, dose response, CellTiter-Glo luminescence (AID 1117323); type: functional, cell-based
[26] = cytotoxicity toward Colo320 cells – cell-based, CellTiter-Glo luminescence, IC50, dose response (AID 1117334); type: functional; conditions: COLO 320
[27] = cytotoxicity toward HT-29 cells – cell-based, CellTiter-Glo luminescence, IC50, dose response (AID 1117330); type: functional
[28] = CellTiter-Glo luminescent dose response of DLD-1 viability loss (AID 1117352); type: functional
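For EC50 in this document: target is galanin receptor GalR3 read with a cAMP biosensor in HEK293 cells.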

Chain of Paired box protein Pax-8 (Q06710 whole entry): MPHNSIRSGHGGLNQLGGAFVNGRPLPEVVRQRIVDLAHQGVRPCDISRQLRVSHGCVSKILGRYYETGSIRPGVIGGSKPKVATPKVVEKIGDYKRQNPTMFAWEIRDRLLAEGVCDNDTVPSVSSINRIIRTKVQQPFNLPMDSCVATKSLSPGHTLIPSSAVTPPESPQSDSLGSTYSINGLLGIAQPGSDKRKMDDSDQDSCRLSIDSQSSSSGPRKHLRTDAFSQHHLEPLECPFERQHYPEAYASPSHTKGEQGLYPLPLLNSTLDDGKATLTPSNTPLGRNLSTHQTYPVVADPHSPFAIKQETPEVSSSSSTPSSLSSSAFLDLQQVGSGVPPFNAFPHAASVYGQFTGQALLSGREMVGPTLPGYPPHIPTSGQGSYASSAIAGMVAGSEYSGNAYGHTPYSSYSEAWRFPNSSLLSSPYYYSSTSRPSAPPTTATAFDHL
Chain of 1-phosphatidylinositol 4,5-bisphosphate phosphodiesterase beta-3 (Q01970 whole entry): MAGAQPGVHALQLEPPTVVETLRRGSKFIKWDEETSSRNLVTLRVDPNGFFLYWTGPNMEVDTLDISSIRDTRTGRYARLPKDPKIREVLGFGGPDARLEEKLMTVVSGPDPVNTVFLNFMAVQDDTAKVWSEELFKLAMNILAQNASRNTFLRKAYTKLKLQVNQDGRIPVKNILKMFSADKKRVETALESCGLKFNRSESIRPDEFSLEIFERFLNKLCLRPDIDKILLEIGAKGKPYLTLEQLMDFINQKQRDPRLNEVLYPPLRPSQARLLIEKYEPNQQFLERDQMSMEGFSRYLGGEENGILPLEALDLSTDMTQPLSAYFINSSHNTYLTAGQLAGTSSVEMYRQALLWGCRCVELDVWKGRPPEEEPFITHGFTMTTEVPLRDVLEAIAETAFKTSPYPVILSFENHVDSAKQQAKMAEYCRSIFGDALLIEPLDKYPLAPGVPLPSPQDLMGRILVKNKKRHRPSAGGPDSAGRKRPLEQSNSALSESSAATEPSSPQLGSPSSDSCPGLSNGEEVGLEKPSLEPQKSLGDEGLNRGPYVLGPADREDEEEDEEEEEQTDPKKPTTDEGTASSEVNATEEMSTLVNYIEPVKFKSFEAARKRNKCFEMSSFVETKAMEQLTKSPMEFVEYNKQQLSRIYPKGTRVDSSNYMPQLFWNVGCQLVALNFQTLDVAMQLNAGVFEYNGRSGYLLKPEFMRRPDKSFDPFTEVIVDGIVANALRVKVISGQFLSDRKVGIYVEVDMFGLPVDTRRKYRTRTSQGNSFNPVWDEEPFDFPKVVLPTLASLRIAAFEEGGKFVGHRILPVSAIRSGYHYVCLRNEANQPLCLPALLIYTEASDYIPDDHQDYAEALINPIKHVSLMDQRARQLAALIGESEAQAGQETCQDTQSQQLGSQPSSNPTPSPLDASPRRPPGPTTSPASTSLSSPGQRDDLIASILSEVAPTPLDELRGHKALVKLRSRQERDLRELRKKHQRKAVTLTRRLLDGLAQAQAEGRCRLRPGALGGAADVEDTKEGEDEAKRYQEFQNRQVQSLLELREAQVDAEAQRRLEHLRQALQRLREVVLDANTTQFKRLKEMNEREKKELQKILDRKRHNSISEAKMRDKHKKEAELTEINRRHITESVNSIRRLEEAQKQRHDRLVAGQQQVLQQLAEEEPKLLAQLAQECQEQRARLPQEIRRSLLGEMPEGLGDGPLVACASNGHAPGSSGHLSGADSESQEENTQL
Chain of 1-phosphatidylinositol 4,5-bisphosphate phosphodiesterase gamma-1 (P19174 whole entry): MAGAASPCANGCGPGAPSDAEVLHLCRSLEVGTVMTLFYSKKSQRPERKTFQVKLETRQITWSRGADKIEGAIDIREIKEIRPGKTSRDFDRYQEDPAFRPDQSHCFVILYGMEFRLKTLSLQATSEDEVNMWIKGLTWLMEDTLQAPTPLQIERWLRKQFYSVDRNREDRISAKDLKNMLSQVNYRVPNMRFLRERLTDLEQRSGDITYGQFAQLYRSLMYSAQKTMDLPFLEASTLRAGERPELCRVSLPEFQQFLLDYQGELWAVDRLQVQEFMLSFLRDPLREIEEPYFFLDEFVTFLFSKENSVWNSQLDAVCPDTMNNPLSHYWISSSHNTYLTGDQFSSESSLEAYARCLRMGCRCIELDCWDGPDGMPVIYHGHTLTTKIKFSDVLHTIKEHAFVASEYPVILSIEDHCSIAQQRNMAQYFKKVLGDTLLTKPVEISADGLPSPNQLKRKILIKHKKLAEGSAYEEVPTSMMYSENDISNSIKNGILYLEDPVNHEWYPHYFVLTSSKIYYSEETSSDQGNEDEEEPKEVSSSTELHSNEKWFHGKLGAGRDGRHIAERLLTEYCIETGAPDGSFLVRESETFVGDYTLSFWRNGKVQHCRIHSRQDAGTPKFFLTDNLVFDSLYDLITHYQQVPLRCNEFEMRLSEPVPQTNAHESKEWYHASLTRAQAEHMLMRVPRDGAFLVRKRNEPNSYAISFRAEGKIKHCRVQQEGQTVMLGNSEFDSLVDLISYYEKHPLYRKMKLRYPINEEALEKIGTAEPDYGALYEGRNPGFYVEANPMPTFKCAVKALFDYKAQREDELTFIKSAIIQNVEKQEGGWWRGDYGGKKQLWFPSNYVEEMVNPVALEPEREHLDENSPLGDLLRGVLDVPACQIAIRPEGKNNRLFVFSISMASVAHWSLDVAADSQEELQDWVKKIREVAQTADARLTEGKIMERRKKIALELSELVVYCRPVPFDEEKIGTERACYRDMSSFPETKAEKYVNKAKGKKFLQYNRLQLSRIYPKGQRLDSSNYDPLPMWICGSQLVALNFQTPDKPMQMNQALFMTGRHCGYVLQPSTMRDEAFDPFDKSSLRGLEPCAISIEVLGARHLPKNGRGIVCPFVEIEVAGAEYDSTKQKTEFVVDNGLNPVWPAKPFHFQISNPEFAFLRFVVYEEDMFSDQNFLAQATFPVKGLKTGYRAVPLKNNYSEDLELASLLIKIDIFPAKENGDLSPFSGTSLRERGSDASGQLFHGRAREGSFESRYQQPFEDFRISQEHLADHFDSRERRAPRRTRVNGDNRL
Chain of Nonstructural protein 1 (Q194T2 whole entry): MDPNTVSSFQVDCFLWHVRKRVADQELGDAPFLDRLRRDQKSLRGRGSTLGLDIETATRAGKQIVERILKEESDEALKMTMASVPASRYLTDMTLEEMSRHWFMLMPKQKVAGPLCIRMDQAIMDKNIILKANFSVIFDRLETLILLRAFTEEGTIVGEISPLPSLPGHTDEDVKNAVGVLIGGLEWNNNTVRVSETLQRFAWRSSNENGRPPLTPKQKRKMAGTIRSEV
Chain of COUP transcription factor 2 (P24468 whole entry): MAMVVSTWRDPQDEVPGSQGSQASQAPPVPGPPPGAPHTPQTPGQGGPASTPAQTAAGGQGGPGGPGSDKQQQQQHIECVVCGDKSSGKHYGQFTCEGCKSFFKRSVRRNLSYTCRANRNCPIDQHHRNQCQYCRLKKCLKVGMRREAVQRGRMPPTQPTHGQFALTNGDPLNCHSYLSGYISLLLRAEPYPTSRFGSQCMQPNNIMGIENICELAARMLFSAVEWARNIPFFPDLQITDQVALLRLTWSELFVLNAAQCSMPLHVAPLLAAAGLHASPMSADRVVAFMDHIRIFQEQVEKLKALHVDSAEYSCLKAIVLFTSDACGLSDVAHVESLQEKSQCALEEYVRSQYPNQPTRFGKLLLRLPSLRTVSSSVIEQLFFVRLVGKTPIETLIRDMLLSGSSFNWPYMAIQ

CC1=C(C(=O)OCc2ccc([N+](=O)[O-])cc2)N2C(=O)C(NC(=O)Cc3ccccc3)C2SC1 (centres undefined)
IC50 [1]: 30.8 µM (inactive)
IC50 [2]: > 122 µM (inactive)

CN(C)c1ccc(C=c2c3ccccc3n3c2c2c([n+]3C)CCCC2)cc1
IC50 (Nonstructural protein 1): 11 µM (active)
CC50 [3]: 16.9 µM (active)
IC50 [4]: 38.3 µM (active)
IC50 (Galanin receptor type 3): 1.31 µM (active)
EC50 (cells): > 29.9 µM (inactive)
AC50 [5]: 0.914 µM (active)
IC50 [6]: > 80 µM (inactive)
AC50 [7]: 7.63 µM (active)
IC50 [8]: 71.1 µM (inactive)

COc1ccc(CNC(=O)c2cccc3c(-c4cccnc4)coc23)cc1OC
AC50 [9]: 0.9 µM (active)
AC50 [10]: 1.66 µM (active)
AC50 [11]: 2.29 µM (active)
IC50 (Galanin receptor type 3): 0.126 µM (active)
EC50 (cells): > 29.9 µM (inactive)
IC50 [12]: 1.47 µM (active)

COc1ccc(S(=O)(=O)Nc2ccc3c(c2)C(=O)N([C@H](C)CO)C[C@H](C)[C@H](CN(C)Cc2ccc(C(F)(F)F)cc2)OCCCC[C@H](C)O3)cc1
AC50 (Paired box protein Pax-8): 9.51 µM (active)
AC50 [13]: 50.7 µM (active)
AC50 [14]: 22.9 µM (active)
AC50 [15]: 31.6 µM (active)

C[C@@H]1CCCCO[C@H](CN(C)S(=O)(=O)c2ccc(F)cc2)[C@H](C)CN([C@@H](C)CO)C(=O)c2cc(N(C)C)ccc2O1
AC50 [16]: 5.44 µM (active)

CCCC(=O)Nc1ccc2c(c1)OC[C@@H](C)N(Cc1ccccc1F)C[C@@H](C)[C@H](OC)CN(C)C2=O
AC50 [17]: 4.01 µM (active)
AC50 [18]: 0.841 µM (active)
AC50 [19]: 0.34 µM (active)
AC50 [20]: 1.78 µM (active)
AC50 [21]: 1.33 µM (active)

O=C(O)c1ccccc1OP(=O)(O)O [FOSFOSAL]
IC50 [22]: > 20 µM (inactive)
IC50 [23]: > 20 µM (inactive)
IC50 [24]: > 20 µM (inactive)
IC50 [25]: > 20 µM (inactive)
IC50 [26]: > 20 µM (inactive)
IC50 [27]: > 20 µM (inactive)
IC50 [28]: > 20 µM (inactive)
